According to the supplement of paper PMC10307832:

Columns and labels:
Experiment in all cases: relative viability (nuclei count vs DMSO), 5 days (fraction); higher = more cells survive
PAC-1 + Olaparib = compound: C=CCc1cccc(/C=N/NC(=O)CN2CCN(Cc3ccccc3)CC2)c1O [PAC-1] + O=C(c1cc(Cc2n[nH]c(=O)c3ccccc23)ccc1F)N1CCN(C(=O)C2CC2)CC1 [Olaparib] (partner 8 µM)
Method in brief: (§1)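 Values are medians from duplicate plates. Each reflects relative viability, defined as the nuclei count of treated wells over that of vehicle wells. Lung cancer cell lines in 1536-well plates were pin-tool dosed one day after seeding with one drug alone or with a fixed anchor-drug dose plus five library-drug doses (not always all listed) in √10 steps, then fixed, stained and imaged at 4× after 5 days.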

BMX-IN-1 + Linsitinib = compound: C=CC(=O)Nc1cc(-n2c(=O)ccc3cnc4ccc(-c5ccc(NS(C)(=O)=O)cc5)cc4c32)ccc1C [BMX-IN-1] + C[C@]1(O)C[C@@H](c2nc(-c3ccc4ccc(-c5ccccc5)nc4c3)c3c(N)nccn32)C1 [Linsitinib] (partner 1 µM)
Method in brief: as §1

Ibrutinib + Vorinostat = compound: C=CC(=O)N1CCC[C@@H](n2nc(-c3ccc(Oc4ccccc4)cc3)c3c(N)ncnc32)C1 [Ibrutinib] + O=C(CCCCCCC(=O)Nc1ccccc1)NO [Vorinostat] (partner 1 µM)
Method in brief: as §1

Ibrutinib + Crizotinib = compound: C=CC(=O)N1CCC[C@@H](n2nc(-c3ccc(Oc4ccccc4)cc3)c3c(N)ncnc32)C1 [Ibrutinib] + C[C@@H](Oc1cc(-c2cnn(C3CCNCC3)c2)cnc1N)c1c(Cl)ccc(F)c1Cl [Crizotinib] (partner 1 µM)
Method in brief: as §1

## HCC-366
PAC-1 + Olaparib; first compound 0.02 µM
  relative viability: 0.314
PAC-1 + Olaparib; first compound 0.06325 µM
  relative viability: 0.411
PAC-1 + Olaparib; first compound 0.2 µM
  relative viability: 0.306
PAC-1 + Olaparib; first compound 2 µM
  relative viability: 0.378
BMX-IN-1 + Linsitinib; first compound 0.02 µM
  relative viability: 0.779
BMX-IN-1 + Linsitinib; first compound 0.2 µM
  relative viability: 0.995
BMX-IN-1 + Linsitinib; first compound 0.6325 µM
  relative viability: 0.736
BMX-IN-1 + Linsitinib; first compound 2 µM
  relative viability: 0.601
Ibrutinib + Vorinostat; first compound 0.005 µM
  relative viability: 0.396
Ibrutinib + Vorinostat; first compound 0.01581 µM
  relative viability: 0.387
Ibrutinib + Vorinostat; first compound 0.05 µM
  relative viability: 0.306
Ibrutinib + Vorinostat; first compound 0.1581 µM
  relative viability: 0.443
Ibrutinib + Vorinostat; first compound 0.5 µM
  relative viability: 0.404
Ibrutinib + Crizotinib; first compound 0.005 µM
  relative viability: 0.623
Ibrutinib + Crizotinib; first compound 0.01581 µM
  relative viability: 0.525
Ibrutinib + Crizotinib; first compound 0.05 µM
  relative viability: 0.506
Ibrutinib + Crizotinib; first compound 0.1581 µM
  relative viability: 0.45
Ibrutinib + Crizotinib; first compound 0.5 µM
  relative viability: 0.514

## HCC-827
PAC-1 + Olaparib; first compound 0.02 µM
  relative viability: 0.65
PAC-1 + Olaparib; first compound 0.06325 µM
  relative viability: 0.696
PAC-1 + Olaparib; first compound 0.2 µM
  relative viability: 0.6
PAC-1 + Olaparib; first compound 2 µM
  relative viability: 0.646
BMX-IN-1 + Linsitinib; first compound 0.02 µM
  relative viability: 1.05
BMX-IN-1 + Linsitinib; first compound 0.2 µM
  relative viability: 1.01
BMX-IN-1 + Linsitinib; first compound 0.6325 µM
  relative viability: 0.999
BMX-IN-1 + Linsitinib; first compound 2 µM
  relative viability: 0.969
Ibrutinib + Vorinostat; first compound 0.005 µM
  relative viability: 0.916
Ibrutinib + Vorinostat; first compound 0.01581 µM
  relative viability: 0.943
Ibrutinib + Vorinostat; first compound 0.05 µM
  relative viability: 1.06
Ibrutinib + Vorinostat; first compound 0.1581 µM
  relative viability: 0.875
Ibrutinib + Vorinostat; first compound 0.5 µM
  relative viability: 0.861
Ibrutinib + Crizotinib; first compound 0.005 µM
  relative viability: 0.89
Ibrutinib + Crizotinib; first compound 0.01581 µM
  relative viability: 0.923
Ibrutinib + Crizotinib; first compound 0.05 µM
  relative viability: 0.927
Ibrutinib + Crizotinib; first compound 0.1581 µM
  relative viability: 0.94
Ibrutinib + Crizotinib; first compound 0.5 µM
  relative viability: 0.184

## HOP-62
PAC-1 + Olaparib; first compound 0.02 µM
  relative viability: 0.408
PAC-1 + Olaparib; first compound 0.06325 µM
  relative viability: 0.273
PAC-1 + Olaparib; first compound 0.2 µM
  relative viability: 0.438
PAC-1 + Olaparib; first compound 2 µM
  relative viability: 0.502
BMX-IN-1 + Linsitinib; first compound 0.02 µM
  relative viability: 0.959
BMX-IN-1 + Linsitinib; first compound 0.2 µM
  relative viability: 1
BMX-IN-1 + Linsitinib; first compound 0.6325 µM
  relative viability: 1.02
BMX-IN-1 + Linsitinib; first compound 2 µM
  relative viability: 0.947
Ibrutinib + Vorinostat; first compound 0.005 µM
  relative viability: 0.529
Ibrutinib + Vorinostat; first compound 0.01581 µM
  relative viability: 0.701
Ibrutinib + Vorinostat; first compound 0.05 µM
  relative viability: 0.557
Ibrutinib + Vorinostat; first compound 0.1581 µM
  relative viability: 0.778
Ibrutinib + Vorinostat; first compound 0.5 µM
  relative viability: 0.71
Ibrutinib + Crizotinib; first compound 0.005 µM
  relative viability: 0.988
Ibrutinib + Crizotinib; first compound 0.01581 µM
  relative viability: 0.947
Ibrutinib + Crizotinib; first compound 0.05 µM
  relative viability: 1
Ibrutinib + Crizotinib; first compound 0.1581 µM
  relative viability: 0.948

## IA-LM
PAC-1 + Olaparib; first compound 0.02 µM
  relative viability: 0.806
PAC-1 + Olaparib; first compound 0.06325 µM
  relative viability: 0.964
PAC-1 + Olaparib; first compound 0.2 µM
  relative viability: 0.952
PAC-1 + Olaparib; first compound 2 µM
  relative viability: 0.833
BMX-IN-1 + Linsitinib; first compound 0.02 µM
  relative viability: 0.701
BMX-IN-1 + Linsitinib; first compound 0.2 µM
  relative viability: 0.674
BMX-IN-1 + Linsitinib; first compound 0.6325 µM
  relative viability: 0.47
BMX-IN-1 + Linsitinib; first compound 2 µM
  relative viability: 0.6
Ibrutinib + Vorinostat; first compound 0.005 µM
  relative viability: 1.04
Ibrutinib + Vorinostat; first compound 0.01581 µM
  relative viability: 0.864
Ibrutinib + Vorinostat; first compound 0.05 µM
  relative viability: 0.918
Ibrutinib + Vorinostat; first compound 0.5 µM
  relative viability: 0.822
Ibrutinib + Crizotinib; first compound 0.005 µM
  relative viability: 0.75
Ibrutinib + Crizotinib; first compound 0.01581 µM
  relative viability: 0.8
Ibrutinib + Crizotinib; first compound 0.05 µM
  relative viability: 1.11
Ibrutinib + Crizotinib; first compound 0.1581 µM
  relative viability: 1
Ibrutinib + Crizotinib; first compound 0.5 µM
  relative viability: 0.947

## LC-2-ad
PAC-1 + Olaparib; first compound 0.02 µM
  relative viability: 0.704
PAC-1 + Olaparib; first compound 0.06325 µM
  relative viability: 0.712
PAC-1 + Olaparib; first compound 0.2 µM
  relative viability: 0.35
PAC-1 + Olaparib; first compound 2 µM
  relative viability: 0.635
BMX-IN-1 + Linsitinib; first compound 0.02 µM
  relative viability: 1.03
BMX-IN-1 + Linsitinib; first compound 0.2 µM
  relative viability: 0.861
BMX-IN-1 + Linsitinib; first compound 0.6325 µM
  relative viability: 0.823
BMX-IN-1 + Linsitinib; first compound 2 µM
  relative viability: 0.852
Ibrutinib + Vorinostat; first compound 0.005 µM
  relative viability: 0.74
Ibrutinib + Vorinostat; first compound 0.01581 µM
  relative viability: 0.665
Ibrutinib + Vorinostat; first compound 0.05 µM
  relative viability: 0.706
Ibrutinib + Vorinostat; first compound 0.1581 µM
  relative viability: 0.802
Ibrutinib + Vorinostat; first compound 0.5 µM
  relative viability: 0.775
Ibrutinib + Crizotinib; first compound 0.01581 µM
  relative viability: 0.449
Ibrutinib + Crizotinib; first compound 0.05 µM
  relative viability: 0.546
Ibrutinib + Crizotinib; first compound 0.1581 µM
  relative viability: 0.476
Ibrutinib + Crizotinib; first compound 0.5 µM
  relative viability: 0.419

## LCLC-97TM1
PAC-1 + Olaparib; first compound 0.02 µM
  relative viability: 0.364
PAC-1 + Olaparib; first compound 0.06325 µM
  relative viability: 0.524
PAC-1 + Olaparib; first compound 2 µM
  relative viability: 0.338
BMX-IN-1 + Linsitinib; first compound 0.02 µM
  relative viability: 0.202
BMX-IN-1 + Linsitinib; first compound 0.2 µM
  relative viability: 0.166
BMX-IN-1 + Linsitinib; first compound 0.6325 µM
  relative viability: 0.162
BMX-IN-1 + Linsitinib; first compound 2 µM
  relative viability: 0.162
Ibrutinib + Vorinostat; first compound 0.005 µM
  relative viability: 0.702
Ibrutinib + Vorinostat; first compound 0.01581 µM
  relative viability: 0.798
Ibrutinib + Vorinostat; first compound 0.05 µM
  relative viability: 0.718
Ibrutinib + Vorinostat; first compound 0.1581 µM
  relative viability: 0.897
Ibrutinib + Vorinostat; first compound 0.5 µM
  relative viability: 0.691
Ibrutinib + Crizotinib; first compound 0.005 µM
  relative viability: 0.365
Ibrutinib + Crizotinib; first compound 0.01581 µM
  relative viability: 0.369
Ibrutinib + Crizotinib; first compound 0.1581 µM
  relative viability: 0.553
Ibrutinib + Crizotinib; first compound 0.5 µM
  relative viability: 0.313

## LCLC-103H
PAC-1 + Olaparib; first compound 0.02 µM
  relative viability: 0.771
PAC-1 + Olaparib; first compound 0.06325 µM
  relative viability: 0.824
PAC-1 + Olaparib; first compound 0.2 µM
  relative viability: 0.761
PAC-1 + Olaparib; first compound 2 µM
  relative viability: 0.745
BMX-IN-1 + Linsitinib; first compound 0.02 µM
  relative viability: 1.12
BMX-IN-1 + Linsitinib; first compound 0.2 µM
  relative viability: 1.06
BMX-IN-1 + Linsitinib; first compound 0.6325 µM
  relative viability: 1.09
BMX-IN-1 + Linsitinib; first compound 2 µM
  relative viability: 1.14
Ibrutinib + Vorinostat; first compound 0.005 µM
  relative viability: 0.776
Ibrutinib + Vorinostat; first compound 0.01581 µM
  relative viability: 0.878
Ibrutinib + Vorinostat; first compound 0.05 µM
  relative viability: 0.777
Ibrutinib + Vorinostat; first compound 0.1581 µM
  relative viability: 0.782
Ibrutinib + Vorinostat; first compound 0.5 µM
  relative viability: 0.754
Ibrutinib + Crizotinib; first compound 0.005 µM
  relative viability: 1.06
Ibrutinib + Crizotinib; first compound 0.01581 µM
  relative viability: 1.03
Ibrutinib + Crizotinib; first compound 0.05 µM
  relative viability: 1.02
Ibrutinib + Crizotinib; first compound 0.1581 µM
  relative viability: 1.06
Ibrutinib + Crizotinib; first compound 0.5 µM
  relative viability: 1.04

## LK-2
PAC-1 + Olaparib; first compound 0.02 µM
  relative viability: 0.774
PAC-1 + Olaparib; first compound 0.06325 µM
  relative viability: 0.704
PAC-1 + Olaparib; first compound 0.2 µM
  relative viability: 0.673
PAC-1 + Olaparib; first compound 2 µM
  relative viability: 0.837
BMX-IN-1 + Linsitinib; first compound 0.02 µM
  relative viability: 0.798
BMX-IN-1 + Linsitinib; first compound 0.2 µM
  relative viability: 0.792
BMX-IN-1 + Linsitinib; first compound 0.6325 µM
  relative viability: 0.696
BMX-IN-1 + Linsitinib; first compound 2 µM
  relative viability: 0.765
Ibrutinib + Vorinostat; first compound 0.005 µM
  relative viability: 0.236
Ibrutinib + Vorinostat; first compound 0.01581 µM
  relative viability: 0.234
Ibrutinib + Vorinostat; first compound 0.05 µM
  relative viability: 0.266
Ibrutinib + Vorinostat; first compound 0.1581 µM
  relative viability: 0.293
Ibrutinib + Vorinostat; first compound 0.5 µM
  relative viability: 0.177
Ibrutinib + Crizotinib; first compound 0.01581 µM
  relative viability: 0.355
Ibrutinib + Crizotinib; first compound 0.05 µM
  relative viability: 0.216
Ibrutinib + Crizotinib; first compound 0.1581 µM
  relative viability: 0.275
Ibrutinib + Crizotinib; first compound 0.5 µM
  relative viability: 0.252

## LOU-NH91
PAC-1 + Olaparib; first compound 0.02 µM
  relative viability: 0.884
PAC-1 + Olaparib; first compound 0.06325 µM
  relative viability: 0.908
PAC-1 + Olaparib; first compound 0.2 µM
  relative viability: 0.92
PAC-1 + Olaparib; first compound 2 µM
  relative viability: 0.879
BMX-IN-1 + Linsitinib; first compound 0.2 µM
  relative viability: 0.976
BMX-IN-1 + Linsitinib; first compound 0.6325 µM
  relative viability: 0.993
BMX-IN-1 + Linsitinib; first compound 2 µM
  relative viability: 0.919
Ibrutinib + Vorinostat; first compound 0.005 µM
  relative viability: 0.818
Ibrutinib + Vorinostat; first compound 0.01581 µM
  relative viability: 0.782
Ibrutinib + Vorinostat; first compound 0.05 µM
  relative viability: 0.749
Ibrutinib + Vorinostat; first compound 0.1581 µM
  relative viability: 0.88
Ibrutinib + Vorinostat; first compound 0.5 µM
  relative viability: 0.684
Ibrutinib + Crizotinib; first compound 0.005 µM
  relative viability: 0.697
Ibrutinib + Crizotinib; first compound 0.01581 µM
  relative viability: 0.557
Ibrutinib + Crizotinib; first compound 0.05 µM
  relative viability: 0.666
Ibrutinib + Crizotinib; first compound 0.1581 µM
  relative viability: 0.738
Ibrutinib + Crizotinib; first compound 0.5 µM
  relative viability: 0.526
